Converted amounts (≈) assume the structure as drawn. Read-outs that look alike come from different tables or passages of the source.
How the values were obtained:
Type in all cases: cell-based
[1] = tested on: Streptococcus pneumoniae ATCC 49619; assay: Broth microdilution MIC, S. pneumoniae ATCC 49619; conditions: ATCC49619, broth microdilution, 37° C., 20 hours, read-out: MIC S. pneumoniae ATCC 49619
In short: (§1)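 Broth microdilution in strain-specific test medium with ~5.0×10^5 cfu/ml inoculum, 1% DMSO and two-fold compound dilutions from 64 to 0.0625 μg/ml. Plates were held 20 hours at 37° C in ambient air. S. pneumoniae colonies were grown beforehand on blood agar in 5% CO2.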

[2] = tested on: Enterococcus faecium ATCC 700221 (VRE); assay: Broth microdilution MIC, E. faecium ATCC 700221 (VRE); set-up: MIC E. faecium ATCC 700221 (VRE): unit: ug/mL; conditions: broth microdilution, 37° C., 20 hours; for MIC: Enterococcus faecium, read-out: MIC E. faecium ATCC 700221 (VRE)
In short: as §1

[3] = tested on: Bacillus subtilis ATCC 6633; assay: Broth microdilution MIC, B. subtilis ATCC 6633; conditions: ATCC6633, broth microdilution, 37° C., 20 hours, read-out: MIC B. subtilis ATCC 6633
In short: as §1

[4] = tested on: Staphylococcus aureus NRS384 (MRSA); assay: Broth microdilution MIC, S. aureus NRS384 (MRSA); set-up: MIC NRS 384 (MRSA): unit not given here; conditions: broth microdilution, 37° C., 20 hours; for MIC: Staphylococcus aureus, read-out: MIC NRS 384 (MRSA)
In short: as §1

[5] = tested on: Escherichia coli ATCC 25922; assay: Broth microdilution MIC, E. coli ATCC 25922 (MHIIB w & w/o 4 mM EDTA); conditions: broth microdilution, 37° C., 20 hours; for MIC: Escherichia coli, ATCC25922, without EDTA, read-out: MIC E. coli ATCC 25922; for MIC E. coli ATCC 25922 + 4 mM EDTA: with 4 mM EDTA
In short: as §1

[6] = tested on: Staphylococcus aureus ATCC 29213 (MSSA); assay: Broth microdilution MIC, S. aureus ATCC 29213 (MSSA); conditions: broth microdilution, 37° C., 20 hours, read-out: MIC S. aureus ATCC 29213 (MSSA)
In short: as §1

[7] = tested on: Enterococcus faecalis ATCC 29212; assay: Broth microdilution MIC, E. faecalis ATCC 29212; conditions: ATCC29212, broth microdilution, 37° C., 20 hours, read-out: MIC E. faecalis ATCC 29212
In short: as §1

| SMILES | MIC [1] | MIC [2] | MIC [3] | MIC [4] | MIC [5] | MIC E. coli ATCC 25922 + 4 mM EDTA [5] | MIC [6] | MIC [7] | MIC ([4]; S. aureus NRS 384) | MIC E. faecium ATCC 700221 (VRE) [2] | MIC NRS 384 (MRSA) [4] |
| --- | --- | --- | --- | --- | --- | --- | --- | --- | --- | --- | --- |
| Cn1ncc2nc(NCc3ccc(Cl)cc3)[nH]c(=O)c21 [Compound 25, 5-((4-chlorobenzyl)amino)-1-methyl-1H-pyrazolo[4,3-d]pyrimidin-7(6H)-one] | 4 µg/mL (≈ 13.8 µM) | 16 µg/mL (≈ 55.2 µM) | 8 µg/mL (≈ 27.6 µM) | 8 µg/mL (≈ 27.6 µM) | > 64 µg/mL | 64 µg/mL | 8 µg/mL (≈ 27.6 µM) | 16 µg/mL (≈ 55.2 µM) | – | – | – |
| O=c1[nH]c(NCc2ccc(Cl)c(Cl)c2)nc2c(F)nn(CCOCCO)c12 [Compound 302, 5-[(3,4-Dichlorophenyl)methylamino]-3-fluoro-1-[2-(2-hydroxyethoxy)ethyl]-6H-pyrazolo[4,3-d]pyrimidin-7-one] | 2 µg/mL (≈ 4.8 µM) | 1 µg/mL (≈ 2.4 µM) | 0.5 µg/mL (≈ 1.2 µM) | – | > 64 µg/mL | >64 µg/mL | 2 µg/mL (≈ 4.8 µM) | 2 µg/mL (≈ 4.8 µM) | 2 µg/mL (≈ 4.8 µM) | – | – |
| COc1ccncc1C(=O)N1CCC(n2ncc3nc(NCc4ccc(Cl)c(Cl)c4)[nH]c(=O)c32)CC1.Cl [Compound 266, 5-((3,4-Dichlorobenzyl)amino)-1-(1-(4-methoxynicotinoyl)piperidin-4-yl)-1H-pyrazolo[4,3-d]pyrimidin-7(6H)-one hydrochloride] | 4 µg/mL | 2 µg/mL | 2 µg/mL | 8 µg/mL | > 64 µg/mL | >64 µg/mL | 8 µg/mL | 4 µg/mL | – | – | – |
| COc1ccnc(C(=O)N2CCC(n3ncc4nc(NCc5ccc(Cl)c(Cl)c5)[nH]c(=O)c43)CC2)c1.Cl [Compound 263, 5-((3,4-dichlorobenzyl)amino)-1-(1-(4-methoxypicolinoyl)piperidin-4-yl)-1H-pyrazolo[4,3-d]pyrimidin-7(6H)-one hydrochloride] | 2 µg/mL | 1 µg/mL | 1 µg/mL | 2 µg/mL | > 64 µg/mL | >64 µg/mL | 4 µg/mL | 4 µg/mL | – | – | – |
| O=C(c1nccs1)N1CCC(n2ncc3nc(NCc4ccc(Cl)c(Cl)c4)[nH]c(=O)c32)CC1 [Compound 254, 5-[(3,4-Dichlorophenyl)methylamino]-1-[1-(thiazole-2-carbonyl)-4-piperidyl]-6H-pyrazolo[4,3-d]pyrimidin-7-one] | 4 µg/mL (≈ 7.93 µM) | 2 µg/mL (≈ 3.97 µM) | 1 µg/mL (≈ 1.98 µM) | 2 µg/mL (≈ 3.97 µM) | > 64 µg/mL | >64 µg/mL | 2 µg/mL (≈ 3.97 µM) | 4 µg/mL (≈ 7.93 µM) | – | – | – |
| O=c1[nH]c(NCc2ccc(Cl)c(Cl)c2)nc2cnn(CCOCCOCCO)c12 [Compound 115, 5-((3,4-Dichlorobenzyl)amino)-1-(2-(2-(2-hydroxyethoxy)ethoxy)ethyl)-1H-pyrazolo[4,3-d]pyrimidin-7(6H)-one] | 16 µg/mL (≈ 36.2 µM) | 8 µg/mL (≈ 18.1 µM) | 8 µg/mL (≈ 18.1 µM) | 32 µg/mL (≈ 72.3 µM) | > 64 µg/mL | >64 µg/mL | 32 µg/mL (≈ 72.3 µM) | 32 µg/mL (≈ 72.3 µM) | – | – | – |
| O=c1[nH]c(NCc2ccc(Cl)c(Cl)c2)nc2cnn(CCSCCO)c12 [Compound 104, 5-((3,4-Dichlorobenzyl)amino)-1-(2-((2-hydroxyethyl)thio)ethyl)-1H-pyrazolo[4,3-d]pyrimidin-7(6H)-one] | 4 µg/mL (≈ 9.65 µM) | – | 1 µg/mL (≈ 2.41 µM) | – | > 64 µg/mL | >64 µg/mL | 4 µg/mL (≈ 9.65 µM) | 4 µg/mL (≈ 9.65 µM) | – | 2/2 | 4/4 |
| O=C(c1cccnc1)N1CCC(n2nc(Cl)c3nc(NCc4ccc(Cl)c(Cl)c4)[nH]c(=O)c32)CC1 [Compound 318, 3-Chloro-5-[(3,4-dichlorophenyl)methylamino]-1-[1-(pyridine-3-carbonyl)-4-piperidyl]-6H-pyrazolo[4,3-d]pyrimidin-7-one] | 4 µg/mL (≈ 7.51 µM) | 1 µg/mL (≈ 1.88 µM) | 1 µg/mL (≈ 1.88 µM) | – | > 64 µg/mL | >64 µg/mL | 2 µg/mL (≈ 3.75 µM) | 2 µg/mL (≈ 3.75 µM) | 2 µg/mL (≈ 3.75 µM) | – | – |

From patent US10723741B1, “DNA polymerase IIIC inhibitors and use thereof” (Acurx Pharmaceuticals, LLC, priority 2018, dated 2020)
